Results as given in patent US11407736B2 (priority 2019, dated 2022).
Where two headings read alike, the source gives them in different places.

Tests used:
RIPK1 = RIPK1 (Homo sapiens (Human), UniProt Q13546); experiment: RIPK1 ADP-Glo biochemical kinase assay
Procedure: The final reaction volume was 5.0ul.
Adding 5 μl of ADP-Glo™ terminated the reaction.

L929 cells = experiment: L929 cell necroptosis assay (TNFa + zVAD, CellTiter-Glo); type: cell-based, murine; conditions: TNFa + zVAD, read-out: L929-CTG-recovery, L929, TNFa + zVAD (IC50)
How it was run: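 Murine L929 cells, plated 18 h beforehand at 10K cells/well in RPMI 1640 with 10% FBS, were switched to medium containing 40 uM zVAD-fmk and given compound from 4-fold serial dilutions. Viability after 18 h of TNFa stimulation at 37° C was read by CellTiter-Glo luminescence.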

U937 cells = experiment: U937 cell necroptosis assay (TNFa + zVAD, CellTiter-Glo); type: cell-based, human; conditions: TNFa + zVAD, read-out: U937 Zvad TNF CTG Recovery, U937, TNFa + zVAD (IC50)
How it was run: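 Human U937 and murine L929 cells in RPMI 1640/10% FBS were pre-incubated 1 h at 37 °C with serially diluted compound plus zVAD-fmk (U937 plated with 60 uM, L929 medium with 40 uM), then stimulated with 2 ng/mL TNFa (final). Viability read by CellTiter-Glo luminescence after 18 h.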

[1] = read-out: RIPK1 ADP-Glo Kinase (IC50)
[2] = Homo sapiens, U-937, U937 cells

RIPK1, sequence (Q13546 whole entry, species assumed): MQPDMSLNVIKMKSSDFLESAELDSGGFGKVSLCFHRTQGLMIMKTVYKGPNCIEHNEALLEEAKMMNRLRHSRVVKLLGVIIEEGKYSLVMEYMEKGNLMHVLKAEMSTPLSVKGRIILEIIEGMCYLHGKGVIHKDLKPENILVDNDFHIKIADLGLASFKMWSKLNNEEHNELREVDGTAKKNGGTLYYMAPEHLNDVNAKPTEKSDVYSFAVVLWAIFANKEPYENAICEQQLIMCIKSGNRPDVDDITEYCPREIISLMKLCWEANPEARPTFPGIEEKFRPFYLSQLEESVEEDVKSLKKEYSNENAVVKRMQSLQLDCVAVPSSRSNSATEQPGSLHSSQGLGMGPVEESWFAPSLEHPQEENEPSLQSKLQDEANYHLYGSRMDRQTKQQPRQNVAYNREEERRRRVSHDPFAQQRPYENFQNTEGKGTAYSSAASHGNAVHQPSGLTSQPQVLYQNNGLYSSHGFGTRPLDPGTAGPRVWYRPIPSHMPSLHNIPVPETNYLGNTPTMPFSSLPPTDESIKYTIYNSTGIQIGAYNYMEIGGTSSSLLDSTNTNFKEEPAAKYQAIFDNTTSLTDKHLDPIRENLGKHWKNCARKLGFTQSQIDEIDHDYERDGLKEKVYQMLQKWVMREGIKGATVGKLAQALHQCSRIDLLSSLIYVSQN

IC50 (RIPK1; [1]) [nM]	Structure (SMILES)	IC50 (L929 cells; Mus musculus, L929, L929 cells) [nM]	IC50 (U937 cells; [2]) [nM]	IC50 (L929 cells; L929 cells) [nM]	IC50 (U937 cells; U937 cells) [nM]	IC50 (RIPK1) [nM]
388	CCN1C(=O)[C@@H](NC(=O)c2n[nH]c(Cc3ccccc3)n2)COc2ccc(C#CC(C)(C)O)cc21 [Compound I-91, (S)-5-benzyl-N-(5-ethyl-7-(3-hydroxy-3-methylbut-1-yn-1-yl)-4-oxo-2,3,4,5-tetrahydrobenzo[b][1,4]oxazepin-3-yl)-1H-1,2,4-triazole-3-carboxamide]	3.7	19.8			
932	CCN1C(=O)[C@@H](NC(=O)c2n[nH]c(Cc3cccc(F)c3)n2)COc2ccc(C#CC(C)(C)O)cc21 [Compound I-92, (S)—N-(5-ethyl-7-(3-hydroxy-3-methylbut-1-yn-1-yl)-4-oxo-2,3,4,5-tetrahydrobenzo[b][1,4]oxazepin-3-yl)-5-(3-fluorobenzyl)-1H-1,2,4-triazole-3-carboxamide]	430	4840			
64.1	C=C(C)C#Cc1ccc2c(c1)NC(=O)[C@@H](NC(=O)c1n[nH]c(Cc3ccccc3)n1)CO2 [Compound I-93, (S)-5-benzyl-N-(7-(3-methylbut-3-en-1-yn-1-yl)-4-oxo-2,3,4,5-tetrahydrobenzo[b][1,4]oxazepin-3-yl)-1H-1,2,4-triazole-3-carboxamide]	921	3240			
27.1	CN1C(=O)[C@@H](NC(=O)c2n[nH]c(Cc3ccccc3)n2)COc2ccc(C#CCN3CCCC3)cc21 [Compound I-95, (S)-5-benzyl-N-(5-methyl-4-oxo-7-(3-(pyrrolidin-1-yl)prop-1-yn-1-yl)-2,3,4,5-tetrahydrobenzo[b][1,4]oxazepin-3-yl)-1H-1,2,4-triazole-3-carboxamide]	0.5	1.4			
31.7	CN1C(=O)[C@@H](NC(=O)c2n[nH]c(Cc3ccccc3)n2)COc2ccc(C#CCN3CCOCC3)cc21 [Compound I-96, (S)-5-benzyl-N-(5-methyl-7-(3-morpholinoprop-1-yn-1-yl)-4-oxo-2,3,4,5-tetrahydrobenzo[b][1,4]oxazepin-3-yl)-1H-1,2,4-triazole-3-carboxamide]	0.8	3.1			
	CN1C(=O)[C@@H](NC(=O)c2cc(Oc3ccccc3)ccn2)COc2ccc(C#CC3(O)CCCC3)cc21 [Compound I-98, (S)—N-(7-((1-hydroxycyclopentyl)ethynyl)-5-methyl-4-oxo-2,3,4,5-tetrahydrobenzo[b][1,4]oxazepin-3-yl)-4-phenoxypicolinamide]	36.8	1.6			29.6
	C=C(C)C#Cc1ccc2c(c1)N(C)C(=O)[C@@H](NC(=O)c1cc(Oc3ccccc3)ccn1)CO2 [Compound I-99, (S)—N-(5-methyl-7-(3-methylbut-3-en-1-yn-1-yl)-4-oxo-2,3,4,5-tetrahydrobenzo[b][1,4]oxazepin-3-yl)-4-phenoxypicolinamide]	116	1.3			126
39.2	CN1C(=O)[C@@H](NC(=O)c2cc(Oc3ccc(F)cc3)ccn2)COc2ccc(C#CC(C)(C)O)cc21 [Compound I-100, (S)-4-(4-fluorophenoxy)-N-(7-(3-hydroxy-3-methylbut-1-yn-1-yl)-5-methyl-4-oxo-2,3,4,5-tetrahydrobenzo[b][1,4]oxazepin-3-yl)picolinamide]	263	8.3			
133	CN1C(=O)[C@@H](NC(=O)c2cc(Oc3ccc(F)cc3)ccn2)COc2ccc(C#CC(C)(C)C)cc21 [Compound I-101, (S)—N-(7-(3,3-dimethylbut-1-yn-1-yl)-5-methyl-4-oxo-2,3,4,5-tetrahydrobenzo[b][1,4]oxazepin-3-yl)-4-(4-fluorophenoxy)picolinamide]	668	36.3			
383	CN1C(=O)[C@@H](NC(=O)c2cc(Oc3ccccc3F)ccn2)COc2ccc(C#CC(C)(C)C)cc21 [Compound I-102, (S)—N-(7-(3,3-dimethylbut-1-yn-1-yl)-5-methyl-4-oxo-2,3,4,5-tetrahydrobenzo[b][1,4]oxazepin-3-yl)-4-(2-fluorophenoxy)picolinamide]	397	27.3			
49	CN1C(=O)[C@@H](NC(=O)c2cc(Oc3ccccc3F)ccn2)COc2ccc(C#CC(C)(C)O)cc21 [Compound I-103, (S)-4-(2-fluorophenoxy)-N-(7-(3-hydroxy-3-methylbut-1-yn-1-yl)-5-methyl-4-oxo-2,3,4,5-tetrahydrobenzo[b][1,4]oxazepin-3-yl)picolinamide]	67.4	1.5			
581	CN1C(=O)[C@@H](NC(=O)c2cc(Oc3ccc(F)cc3F)ccn2)COc2ccc(C#CC(C)(C)C)cc21 [Compound I-104, (S)-4-(2,4-difluorophenoxy)-N-(7-(3,3-dimethylbut-1-yn-1-yl)-5-methyl-4-oxo-2,3,4,5-tetrahydrobenzo[b][1,4]oxazepin-3-yl)picolinamide]	1820	224			
31.2	CN1C(=O)[C@@H](NC(=O)c2cc(Oc3ccc(F)cc3F)ccn2)COc2ccc(C#CC(C)(C)O)cc21 [Compound I-105, (S)-4-(2,4-difluorophenoxy)-N-(7-(3-hydroxy-3-methylbut-1-yn-1-yl)-5-methyl-4-oxo-2,3,4,5-tetrahydrobenzo[b][1,4]oxazepin-3-yl)picolinamide]	254	9.3			
582	CN1C(=O)[C@@H](NC(=O)c2cc(Oc3cccc(F)c3)ccn2)COc2ccc(C#CC(C)(C)C)cc21 [Compound I-106, (S)—N-(7-(3,3-dimethylbut-1-yn-1-yl)-5-methyl-4-oxo-2,3,4,5-tetrahydrobenzo[b][1,4]oxazepin-3-yl)-4-(3-fluorophenoxy)picolinamide]	481	5.5			
23.1	CN1C(=O)[C@@H](NC(=O)c2cc(Oc3cccc(F)c3)ccn2)COc2ccc(C#CC(C)(C)O)cc21 [Compound I-107, (S)-4-(3-fluorophenoxy)-N-(7-(3-hydroxy-3-methylbut-1-yn-1-yl)-5-methyl-4-oxo-2,3,4,5-tetrahydrobenzo[b][1,4]oxazepin-3-yl)picolinamide]	161	1.3			
314	CC(C)CCc1ccc2c(c1)N(C)C(=O)[C@@H](NC(=O)c1cc(Oc3ccccc3)ccn1)CO2 [Compound I-108, (S)—N-(7-isopentyl-5-methyl-4-oxo-2,3,4,5-tetrahydrobenzo[b][1,4]oxazepin-3-yl)-4-phenoxypicolinamide]	2310	8.8			
	CN1C(=O)[C@@H](NC(=O)c2cc(Oc3ccccc3)ccn2)COc2ccc(C#CC(C)(C)CO)cc21 [Compound I-109, (S)—N-(7-(4-hydroxy-3,3-dimethylbut-1-yn-1-yl)-5-methyl-4-oxo-2,3,4,5-tetrahydrobenzo[b][1,4]oxazepin-3-yl)-4-phenoxypicolinamide]	24.3	0.4			32.1

Structure (SMILES)	IC50 (RIPK1; [1]) [nM]	IC50 (L929 cells; Mus musculus, L929, L929 cells) [nM]	IC50 (U937 cells; [2]) [nM]	IC50 (L929 cells; L929 cells) [nM]	IC50 (U937 cells; U937 cells) [nM]	IC50 (RIPK1) [nM]
CN1C(=O)[C@@H](NC(=O)c2n[nH]c(Cc3ccccc3)n2)COc2ccc(C#C[Si](C)(C)C)cc21 [Compound I-97, (S)-5-benzyl-N-(5-methyl-4-oxo-7-((trimethylsilyl)ethynyl)-2,3,4,5-drobenzo[b][1,4]oxazepin-3-yl)-1H-1,2,4-triazole-3-carboxamide]	85.8			0.9	1.7	
